Assay results from ChEMBL document CHEMBL1134750, “Structure-activity relationship on the human EP3 prostanoid receptor by use of solid-support chemistry” (Bioorg Med Chem Lett, 2001).
Values belong to the molecule of their own block, whether it stands above or below them.

Columns and labels:
[1] = biological target: T1, Prostaglandin E2 receptor EP3 subtype (Homo sapiens) (UniProt P43115); experiment: Residual binding of radiolabeled PGE-2 on the Prostanoid EP3 receptor at a concentration of 1 uM
T1 sequence (whole entry): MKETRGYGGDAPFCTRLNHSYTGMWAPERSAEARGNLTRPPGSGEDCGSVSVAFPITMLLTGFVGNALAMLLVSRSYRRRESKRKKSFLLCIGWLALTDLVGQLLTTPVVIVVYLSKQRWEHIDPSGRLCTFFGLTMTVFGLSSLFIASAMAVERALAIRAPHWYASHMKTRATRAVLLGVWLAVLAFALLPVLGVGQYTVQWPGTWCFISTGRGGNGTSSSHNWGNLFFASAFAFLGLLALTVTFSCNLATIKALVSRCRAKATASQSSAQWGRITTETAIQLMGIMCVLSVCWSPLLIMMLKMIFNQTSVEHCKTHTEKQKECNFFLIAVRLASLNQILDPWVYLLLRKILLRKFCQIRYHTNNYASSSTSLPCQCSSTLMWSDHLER

[2] = biological target: Prostaglandin E2 receptor EP2 subtype (Homo sapiens, UniProt P43116); experiment: Antagonistic activity at Prostanoid EP2 receptor in human was determined; format: functional
Sequence of Prostaglandin E2 receptor EP2 subtype (P43116 whole entry): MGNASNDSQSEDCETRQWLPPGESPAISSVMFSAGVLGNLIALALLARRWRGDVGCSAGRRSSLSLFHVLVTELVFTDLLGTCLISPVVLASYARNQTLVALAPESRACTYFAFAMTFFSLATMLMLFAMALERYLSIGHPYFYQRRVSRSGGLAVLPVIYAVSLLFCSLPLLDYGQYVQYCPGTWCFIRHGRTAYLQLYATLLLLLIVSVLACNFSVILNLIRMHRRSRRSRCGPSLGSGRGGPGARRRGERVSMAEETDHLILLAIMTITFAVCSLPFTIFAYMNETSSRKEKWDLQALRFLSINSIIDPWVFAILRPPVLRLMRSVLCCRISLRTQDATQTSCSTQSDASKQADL

[3] = biological target: Prostaglandin F2-alpha receptor (Homo sapiens, UniProt P43088); experiment: Antagonistic activity at Prostanoid FP receptor in human was determined; format: functional
Sequence of Prostaglandin F2-alpha receptor (P43088 whole entry): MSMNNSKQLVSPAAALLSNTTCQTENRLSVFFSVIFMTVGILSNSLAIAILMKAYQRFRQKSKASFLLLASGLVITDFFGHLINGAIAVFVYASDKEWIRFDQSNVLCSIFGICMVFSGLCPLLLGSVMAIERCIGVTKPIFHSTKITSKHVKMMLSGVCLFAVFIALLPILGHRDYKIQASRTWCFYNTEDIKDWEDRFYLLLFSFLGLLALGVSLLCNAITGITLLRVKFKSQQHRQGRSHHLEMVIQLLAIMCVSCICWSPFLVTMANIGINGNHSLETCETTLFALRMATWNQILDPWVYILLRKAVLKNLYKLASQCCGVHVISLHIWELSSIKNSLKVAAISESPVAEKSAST

[4] = biological target: Prostacyclin receptor (Homo sapiens, UniProt P43119); experiment: Antagonistic activity at Prostanoid IP receptor in human was determined; format: functional
Sequence of Prostacyclin receptor (P43119 whole entry): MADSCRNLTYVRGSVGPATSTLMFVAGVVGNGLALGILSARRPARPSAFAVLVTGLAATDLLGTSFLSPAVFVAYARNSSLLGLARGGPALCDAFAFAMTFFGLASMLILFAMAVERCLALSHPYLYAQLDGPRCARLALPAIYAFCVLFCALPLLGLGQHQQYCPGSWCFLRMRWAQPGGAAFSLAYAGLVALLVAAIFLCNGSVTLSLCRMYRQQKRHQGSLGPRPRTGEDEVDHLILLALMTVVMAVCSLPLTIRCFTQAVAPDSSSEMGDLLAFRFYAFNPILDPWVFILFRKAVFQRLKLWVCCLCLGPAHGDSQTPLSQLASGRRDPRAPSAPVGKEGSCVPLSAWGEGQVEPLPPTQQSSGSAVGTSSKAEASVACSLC

[5] = biological target: T2, Prostaglandin E2 receptor EP3 subtype (Homo sapiens, UniProt P43115); experiment: Antagonistic activity at Prostanoid EP3 receptor in human was determined; format: functional
T2 sequence (P43115 whole entry): T1 sequence (whole entry)

[6] = biological target: T3, Prostaglandin D2 receptor (Homo sapiens, UniProt Q13258); experiment: Antagonistic activity at Prostanoid DP receptor in human was determined; format: functional
T3 sequence (Q13258 whole entry): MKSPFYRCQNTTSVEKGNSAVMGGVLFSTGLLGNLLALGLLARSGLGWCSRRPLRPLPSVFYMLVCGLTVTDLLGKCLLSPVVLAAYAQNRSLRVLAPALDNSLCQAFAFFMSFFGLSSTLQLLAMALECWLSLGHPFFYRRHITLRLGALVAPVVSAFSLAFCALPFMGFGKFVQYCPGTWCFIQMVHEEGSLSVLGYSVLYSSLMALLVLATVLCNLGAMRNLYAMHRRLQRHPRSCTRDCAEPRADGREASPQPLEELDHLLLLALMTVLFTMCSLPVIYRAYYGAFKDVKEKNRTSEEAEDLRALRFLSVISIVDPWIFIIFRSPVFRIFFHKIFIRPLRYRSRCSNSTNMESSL

[7] = biological target: T4, Prostaglandin E2 receptor EP1 subtype (Homo sapiens, UniProt P34995); experiment: Antagonistic activity at Prostanoid EP1 receptor in human was determined; format: functional
T4 sequence (P34995 whole entry): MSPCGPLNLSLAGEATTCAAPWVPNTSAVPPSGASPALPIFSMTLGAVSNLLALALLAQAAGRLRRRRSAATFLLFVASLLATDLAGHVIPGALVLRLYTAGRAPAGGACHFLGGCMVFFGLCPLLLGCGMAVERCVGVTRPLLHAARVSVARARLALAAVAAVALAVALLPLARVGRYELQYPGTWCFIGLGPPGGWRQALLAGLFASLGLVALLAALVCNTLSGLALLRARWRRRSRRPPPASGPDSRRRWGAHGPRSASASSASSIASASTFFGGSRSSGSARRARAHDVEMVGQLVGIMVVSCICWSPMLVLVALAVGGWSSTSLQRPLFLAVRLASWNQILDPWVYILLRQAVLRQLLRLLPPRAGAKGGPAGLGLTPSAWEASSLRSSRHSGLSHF

[8] = biological target: Prostaglandin E2 receptor EP4 subtype (Homo sapiens, UniProt P35408); experiment: Antagonistic activity at Prostanoid EP4 receptor in human was determined; format: functional
Sequence of Prostaglandin E2 receptor EP4 subtype (P35408 whole entry): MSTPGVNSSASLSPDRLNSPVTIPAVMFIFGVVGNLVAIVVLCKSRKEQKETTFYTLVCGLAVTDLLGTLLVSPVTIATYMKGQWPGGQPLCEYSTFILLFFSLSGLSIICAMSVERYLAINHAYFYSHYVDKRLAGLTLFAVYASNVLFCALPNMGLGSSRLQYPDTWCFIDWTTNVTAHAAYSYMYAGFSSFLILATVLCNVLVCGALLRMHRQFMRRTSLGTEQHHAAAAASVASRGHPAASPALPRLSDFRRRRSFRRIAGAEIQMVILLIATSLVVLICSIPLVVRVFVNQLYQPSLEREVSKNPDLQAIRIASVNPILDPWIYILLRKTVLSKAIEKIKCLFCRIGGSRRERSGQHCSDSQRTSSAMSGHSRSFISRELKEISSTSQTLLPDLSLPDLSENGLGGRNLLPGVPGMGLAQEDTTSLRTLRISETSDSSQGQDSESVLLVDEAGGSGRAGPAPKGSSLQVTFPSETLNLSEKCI

[9] = biological target: T5, Thromboxane A2 receptor (Homo sapiens, UniProt P21731); experiment: Antagonistic activity at Thromboxane A2 receptor in human was determined; format: functional
T5 sequence (P21731 whole entry): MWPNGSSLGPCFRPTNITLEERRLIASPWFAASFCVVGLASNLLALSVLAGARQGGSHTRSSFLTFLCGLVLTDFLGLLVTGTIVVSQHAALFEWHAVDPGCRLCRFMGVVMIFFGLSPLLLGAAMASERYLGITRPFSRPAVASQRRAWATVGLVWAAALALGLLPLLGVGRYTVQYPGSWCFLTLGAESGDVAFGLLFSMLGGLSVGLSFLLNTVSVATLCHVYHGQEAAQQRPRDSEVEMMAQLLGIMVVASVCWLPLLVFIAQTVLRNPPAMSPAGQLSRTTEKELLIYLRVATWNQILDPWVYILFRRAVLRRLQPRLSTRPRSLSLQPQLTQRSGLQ

Structure (SMILES): OCc1cccc(B(O)O)c1
- Residual binding [1]: 84%

Structure (SMILES): OB(O)c1cccc(C(F)(F)F)c1
- Residual binding [1]: 54%

Structure (SMILES): CC(C)(C)NS(=O)(=O)c1ccc(B(O)O)cc1
- Residual binding [1]: 100%

Structure (SMILES): COc1ccccc1B(O)O
- Residual binding [1]: 93%

Structure (SMILES): COc1ccc(B(O)O)cc1OC
- Residual binding [1]: 84%

Structure (SMILES): OB(O)c1ccc2ccccc2c1
- Residual binding [1]: 5%

Structure (SMILES): OB(O)c1cccs1
- Residual binding [1]: 74%

Structure (SMILES): OB(O)c1ccccc1C(F)(F)F
- Residual binding [1]: 89%

Structure (SMILES): OB(O)c1ccsc1
- Residual binding [1]: 77%

Structure (SMILES): OB(O)c1ccc(Cl)cc1Cl
- Residual binding [1]: 25%

Structure (SMILES): CSc1ccccc1B(O)O
- Residual binding [1]: 96%

Structure (SMILES): OB(O)c1ccc(Cl)c(Cl)c1
- Residual binding [1]: 8%

Structure (SMILES): OB(O)c1cccc(Cl)c1
- Residual binding [1]: 55%

Structure (SMILES): OB(O)c1ccco1
- Residual binding [1]: 91%

Structure (SMILES): OB(O)c1cc2ccccc2o1
- Residual binding [1]: 61%

More lines, now with the values ahead:

- Residual binding [1]: 27%
Structure (SMILES): CSc1ccc(B(O)O)cc1

- Residual binding [1]: 52%
Structure (SMILES): OB(O)c1cccc(CSCCc2ccccc2)c1

- Residual binding [1]: 68%
Structure (SMILES): OB(O)c1ccccc1CSCCc1ccccc1

- Ki [2]: 12 µM
- Ki [3]: 69 µM
- Ki [4]: > 100 µM
- Ki [5]: 0.02 µM
- Ki [6]: 0.53 µM
- Ki [7]: > 100 µM
- Ki [8]: 3.1 µM
- Ki [9]: 10 µM
Structure (SMILES): O=C(O)/C=C/c1ccccc1Cc1ccc2ccccc2c1

- Ki [2]: 4.1 µM
- Ki [3]: 63 µM
- Ki [4]: 31 µM
- Ki [5]: 0.11 µM
- Ki [6]: 2.5 µM
- Ki [7]: > 100 µM
- Ki [8]: > 40 µM
- Ki [9]: 0.52 µM
Structure (SMILES): O=C(O)/C=C/c1ccccc1Cc1ccc(Cl)cc1Cl

- Residual binding [1]: 48%
Structure (SMILES): OB(O)c1cccc2ccccc12

- Ki [2]: 13 µM
- Ki [3]: 41 µM
- Ki [4]: 37 µM
- Ki [5]: 0.032 µM
- Ki [6]: 2.4 µM
- Ki [7]: 63 µM
- Ki [8]: 10 µM
- Ki [9]: 0.9 µM
Structure (SMILES): O=C(O)/C=C/c1ccccc1Cc1ccc(Cl)c(Cl)c1

- Ki [2]: 43 µM
- Ki [3]: > 83 µM
- Ki [4]: > 76 µM
- Ki [5]: 0.08 µM
- Ki [6]: 4.1 µM
- Ki [7]: > 100 µM
- Ki [8]: > 50 µM
- Ki [9]: 4.6 µM
Structure (SMILES): CSc1ccc(Cc2ccccc2/C=C/C(=O)O)cc1
